Assays:
[1] = test system: rabbit; conditions: Prenatal developmental toxicity study, new zealand white, Dermal, Topical, dose end: 19 GD
[2] = test system: rat; conditions: Subchronic oral toxicity in rodents, sprague dawley, Gavage/Intubation, dose end: 12 week, group: systemic, systemic / clinical chemistry / alkaline phosphatase (alp/alk) / alkaline phosphatase (alp/alk) + systemic / clinical chemistry / albumin / …
[3] = test system: rat; conditions: Developmental neurotoxicity study; sprague dawley; Oral; Gavage/Intubation; dose end: 90 PND; group: cannot be grouped; developmental / developmental landmark / eye opening / eye opening + reproductive / offspring survival early / dead fetuses / dead fetuses…
[4] = test system: rat; conditions: Prenatal developmental toxicity study, sprague dawley, Injection, Subcutaneous, dose end: 8 GD
[5] = test system: rat; conditions: Prenatal developmental toxicity study; wistar; Oral; Gavage/Intubation; dose end: 15 GD; group: developmental; developmental / developmental malformation / bone / incomplete ossification + developmental / developmental malformation / bone / …
[6] = test system: rat; conditions: Subchronic oral toxicity in rodents, sprague dawley, Gavage/Intubation, dose end: 13 week, group: systemic
[7] = test system: mouse; conditions: Sub-acute repeat dose toxicity, other, Oral, Gavage/Intubation, dose end: 21 day, group: systemic
[8] = test system: rat; conditions: Prenatal developmental toxicity study, wistar, Dermal, Topical, dose end: 16 GD
[9] = test system: rat; conditions: Developmental neurotoxicity study, sprague dawley, Oral, Gavage/Intubation, dose end: 97 PND, group: cannot be grouped
[10] = group: developmental, systemic / in life observation / body weight / fetal weight
[11] = group: maternal, systemic / in life observation / body weight / body weight + systemic / in life observation / body weight / body weight gain + systemic / in…
[12] = group: developmental, developmental / developmental malformation / general / crown-rump length + systemic / in life observation / body weight / fetal weight
[13] = group: maternal, reproductive / reproductive performance / resorptions / resorptions + systemic / in life observation / body weight / body weight + systemic…
[14] = systemic / clinical chemistry / alkaline phosphatase (alp/alk) / alkaline phosphatase (alp/alk) + systemic / hematology / erythrocyte (rbc) …
[15] = systemic / clinical chemistry / alkaline phosphatase (alp/alk) / alkaline phosphatase (alp/alk) + systemic / pathology microscopic / bone / …
[16] = systemic / hematology / hematocrit (hct) / hematocrit (hct) + systemic / hematology / hemoglobin (hgb) / hemoglobin (hgb)
[17] = group: developmental, developmental / developmental malformation / bone / supernumerary + systemic / in life observation / body weight / fetal weight
[18] = group: maternal, systemic / in life observation / clinical signs / [other] + systemic / in life observation / clinical signs / erythema + systemic / in life …
[19] = systemic / in life observation / body weight / offspring (pup) weight gain

CC1=C(/C=C/C(C)=C/C=C/C(C)=C/C(=O)O)C(C)(C)CCC1 [trans-Retinoic acid]
LEL [1, 10]: 0.5 mg/kg/day
LOAEL [1, 10]: > 0.5 mg/kg/day
NEL [1, 10]: 0.05 mg/kg/day
NOAEL [1, 10]: ≥ 0.5 mg/kg/day
LEL [1, 11]: 0.05 mg/kg/day
LOAEL [1, 11]: > 0.5 mg/kg/day
NEL [1, 11]: < 0.05 mg/kg/day
NOAEL [1, 11]: ≥ 0.5 mg/kg/day
LEL [2]: 0.5 mg/kg/day
LOAEL [2]: > 5 mg/kg/day
NEL [2]: < 0.5 mg/kg/day
NOAEL [2]: ≥ 5 mg/kg/day
LEL [3]: 2.5 mg/kg/day
LOAEL [3]: > 2.5 mg/kg/day
NEL [3]: < 2.5 mg/kg/day
NOAEL [3]: ≥ 2.5 mg/kg/day
LEL [4, 12]: 48.1 mg/kg/day
LOAEL [4, 12]: > 144 mg/kg/day
NEL [4, 12]: 24 mg/kg/day
NOAEL [4, 12]: ≥ 144 mg/kg/day
LOAEL [4, 13]: > 144 mg/kg/day
NEL [4, 13]: 48.1 mg/kg/day
NOAEL [4, 13]: ≥ 144 mg/kg/day
LEL ([4]; group: maternal, systemic / in life observation / body weight / body weight + systemic / in life observation / clinical signs / abnormal gait + systemic / in…): 96.1 mg/kg/day
LEL [5]: 5 mg/kg/day
LOAEL [5]: > 10 mg/kg/day
NEL [5]: 2.5 mg/kg/day
NOAEL [5]: ≥ 10 mg/kg/day
LOAEL [6, 14]: > 50 mg/kg/day
NEL [6, 14]: 1 mg/kg/day
NOAEL [6, 14]: ≥ 50 mg/kg/day
LEL ([6]; systemic / clinical chemistry / alkaline phosphatase (alp/alk) / alkaline phosphatase (alp/alk) + systemic / pathology microscopic / lymph …): 4 mg/kg/day
LOAEL [7, 15]: > 100 mg/kg/day
NOAEL [7, 15]: ≥ 100 mg/kg/day
LEL [7, 16]: 3 mg/kg/day
NEL [7, 16]: < 3 mg/kg/day
LEL ([8]; group: developmental, developmental / developmental malformation / bone / supernumerary): 2.5 mg/kg/day
LOAEL [8, 17]: > 20 mg/kg/day
NEL [8, 17]: 1 mg/kg/day
NOAEL [8, 17]: ≥ 20 mg/kg/day
LOAEL [8, 11]: > 20 mg/kg/day
NOAEL [8, 11]: ≥ 20 mg/kg/day
LEL [8, 18]: 1 mg/kg/day
NEL [8, 18]: < 1 mg/kg/day
LOAEL [9, 19]: > 6 mg/kg/day
NOAEL [9, 19]: ≥ 6 mg/kg/day
LEL ([9]; systemic / in life observation / clinical signs / impaired foot spread): 2.5 mg/kg/day

Reference: EPA's ToxRefDB 2
